Columns and labels:
[1] = Two-photon absorption cross-sectional area, Z scan method, Examples C; type: physicochemical; details: tetrahydrofuran solution, wavelength 800 nm
Description: Compound 1-7 (porphyrin derivative) of the present invention was dissolved in tetrahydrofuran, and the resultant tetrahydrofuran solution was measured for its two-photon absorption cross-sectional area according to the below-described evaluation method therefor.
The following Comparative Compound 1 was dissolved in tetrahydrofuran, and the resultant tetrahydrofuran solution was measured for its two-photon absorption cross-sectional area according to the below-described evaluation method therefor.
The following Comparative Compound 2, having a typical porphyrin structure, was dissolved in tetrahydrofuran, and the resultant tetrahydrofuran solution was measured for its two-photon absorption cross-sectional area in a similar manner.
The following Comparative Compound 3, having a conventional, typical diazaporphyrin structure, was dissolved in tetrahydrofuran, and the resultant tetrahydrofuran solution was measured for its two-photon absorption cross-sectional area.
[drawing 71] [Method for Measuring Two-Photon Absorption Cross-Sectional Area] […]
A quartz cell filled with each sample solution was placed in a light path through which a focused laser beam was passed. […] The sample solution was measured for its transmittance, and the thus-obtained value and the following theoretical equation (I) were used to determine a nonlinear absorption coefficient of the sample. […]

[2] = Two-photon absorption cross-sectional area, Z scan method, Examples A (800 nm); type: physicochemical; details: tetrahydrofuran solution, femtosecond titanium sapphire laser
Description: Each of the above-given compounds Nos. 1, 2, 4, 5, 6, 7, 10, 11, 15, 16, 17, 20, 24, 25, 27 and 28 of the present invention was dissolved in tetrahydrofuran, and the resultant solution was measured for its two-photon absorption cross-sectional area according to the below-described evaluation method therefor.
The following compound (29) was dissolved in tetrahydrofuran, and the resultant solution was measured for its two-photon absorption cross-sectional area according to the below-described evaluation method therefor.
The following compound (30) was dissolved in tetrahydrofuran, and the resultant solution was measured for its two-photon absorption cross-sectional area according to the below-described evaluation method therefor.
[drawing 66] [Method for Measuring Two-Photon Absorption Cross-Sectional Area]
FIG. 8 schematically illustrates a system of the method.
Measuring light source: femtosecond titanium sapphire laser
Repetition frequency: 80 MHz
Measuring method: Z scan method
Wavelength of light source: 800 nm
Inner diameter of cuvette: 10 mm
Light power for measurement: about 500 mW
Collection diameter: 40 μm to 50 μm
A quartz cell filled with each sample solution was placed in a light path through which a focused laser beam was passed. Then, the cell was moved along the light path for Z-scan measurement.
The sample solution was measured for its transmittance, and the thus-obtained value and the following theoretical equation (1) were used to determine a nonlinear absorption coefficient of the sample. T=[ln(1+I0L0β)]/I0L0β (1) where T denotes a transmittance (%), I0 denotes an excited light density [GW/cm^2], L0 denotes a sample cell length [cm], and β denotes a nonlinear absorption coefficient [cm/GW].
The thus-determined nonlinear absorption coefficient and the following equation (2) were used to calculate a two-photon absorption cross-sectional area σ. Note that the unit of σ is GM (1 GM=1×10^−50 cm^4·s·photon^−1). σ=1,000×hvβ/[…] (2)
where h denotes the Planck's constant [J·s], v denotes a frequency of an incident laser beam [s^−1], NA denotes the Avogadoro's number, and C denotes a concentration of a solution [mol/L].

Compound	Two-photon absorption cross-sectional area [1] [GM]	Two-photon absorption cross-sectional area [2]
COc1ccc(-c2cc(C3=C(c4cc(-c5ccc(OC)cc5)sc4OC)C(F)(F)C(F)(F)C3(F)F)c(OC)s2)cc1 [Comp. Ex. C-1]	15	–
CCCCCCc1ccc(N(c2ccc(-c3c4nc(c(-c5c(C)cc(C)cc5C)c5[nH]c(cc6nc(c(-c7c(C)cc(C)cc7C)c7[nH]c3c(CC)c7C)C(C)=C6CC)c(CC)c5C)C(C)=C4CC)cc2)c2ccc(-c3c4nc(c(-c5c(C)cc(C)cc5C)c5[nH]c(cc6nc(c(-c7c(C)cc(C)cc7C)c7[nH]c3c(CC)c7C)C(C)=C6CC)c(CC)c5C)C(C)=C4CC)cc2)cc1 [compound 25]	–	1,020 GM
CCC1=C(CC)c2nc1c(Br)c1[nH]c(c(CC)c1CC)c(-c1ccc([N+](=O)[O-])cc1)c1nc(c(-c3ccc4c(c3)C(C)(C)c3cc(-c5c6nc(c(-c7ccc([N+](=O)[O-])cc7)c7[nH]c(c(Br)c8nc(c(-c9ccc([N+](=O)[O-])cc9)c9[nH]c5c(CC)c9CC)C(CC)=C8CC)c(CC)c7CC)C(CC)=C6CC)ccc3-4)c3[nH]c(c(CC)c3CC)c2-c2ccc([N+](=O)[O-])cc2)C(CC)=C1CC [compound 27]	–	870 GM
CCC1=C(CC)C2=C(Br)c3c(CC)c(CC)c4[n]3[Zn][n]3c(c(CC)c(CC)c3=C(c3ccc5c(c3)C(C)(C)c3cc(C6=C7N=C(C(CC)=C7CC)C(c7ccc([N+](=O)[O-])cc7)=c7c(CC)c(CC)c8[n]7[Zn][n]7c(c(CC)c(CC)c76)C(c6ccc([N+](=O)[O-])cc6)=C6N=C(C(CC)=C6CC)C=8Br)ccc3-5)C3=NC(=C4c4ccc([N+](=O)[O-])cc4)C(CC)=C3CC)=C(c3ccc([N+](=O)[O-])cc3)C1=N2 [compound 28]	–	590 GM
COc1ccc(-c2cc(C3=C(c4cc(-c5ccc(OC)cc5)sc4OC)C(F)(F)C(F)(F)C3(F)F)c(OC)s2)cc1 [compound 30, reference compound]	–	15 GM
